{
  "source": "paper PMC4848641",
  "about": "“The Scorpion Toxin Analogue BmKTX-D33H as a Potential Kv1.3 Channel-Selective Immunomodulator for Autoimmune Diseases” (Toxins, 2016)",
  "key": {"CD3^+ T cells [1]": {"test_system": "CD3^+ T cells", "settings": "pre-incubation for 1 h before activation; anti-CD3/CD28 beads; ELISA", "description": "(§1) Peripheral blood (PB) obtained from four healthy volunteers was approved by the Ethics Committee of the College of Life Sciences in Wuhan University (Permit number: ECCLS20120076, approved at 3 May 2012). Ficoll gradients were used to isolate mononuclear cells from PB. The CD3^+ T cells were then purified using EasySep Isolation Kit (StemCell Technologies, Vancouver, BC, Canada), and cultured at density of 5 × 10^5 cells per cm^2 in RPMI-1640 medium supplemented with 2 mM glutamine, and 10% FBS. All the T-cells were cultured at a temperature of 37 °C in a humidified 95% air and 5% CO2 atmosphere. […]\n(§2) The Jurkat cells or peripheral blood CD3^+ cells were seeded in round-bottom plates (Corning-costar) at 5 × 10^5 cells per cm^2. […] The cells were cultured for 48 h, and cell proliferation was measured using CellTiter 96 AQueous One Solution Cell Proliferation Assay Kit (Promega, Madison, WI, USA) in accordance with the manufacturer’s guide. Absorbance was read at a wavelength of 490 nm.\n(§3) The IL-2, IFN-γ, and TNF-α levels in supernatants of stimulated cells were measured with ELISA kit (Dakewei, Shenzhen, China) following the manufacturer’s protocol. Absorbance was measured with an automatic plate reader at a wavelength of 450 nm with reference at 630 nm."}, "Kv1.3 channel [2]": {"test_system": "Kv1.3 channel", "assay": "Selectivity towards the Kv1.3 channel over other K^+ channels", "format": "cell-based", "settings": "versus Kv1.1, Kv1.2, Kv1.7 (Kv7.1), Kv11.1, KCa2.2, KCa2.3, and KCa3.1", "description": "(§4) Whole cell patch-clamp recordings of Kv1.3 channel were obtained from human T cells. Electrophysiological experiments of other assayed potassium channels were performed on HEK293 cells transfected with cDNA encoding Kv1.1, Kv1.2, Kv1.3, Kv7.1, Kv11.1, KCa2.2, KCa2.3, and KCa3.1 channels using TurboFect Reagent (ThermoSci., Waltham, MA, USA). The cDNAs were subcloned into the Xho I/Bam HI sites of pIRES2-EGFP, a bicistronic expression vector (Clontech, Mountain View, CA, USA) coexpressed with enhanced GFP. The constructs were verified by DNA sequencing. Currents were recorded on eGFP-expression positive cells one to three days post-transfection. Electrophysiological experiments were performed using protocols according to previously published references. Cells were bathed with mammalian Ringer’s solution: 5 mM KCl, 140 mM NaCl, 2 mM CaCl2, 1 mM MgCl2, […], 10 mM D-glucose (adjusted to pH 7.4 with NaOH). A multichannel microperfusion system MPS-2 (INBIO Inc, Wuhan, China) was used to exchange the external recording bath solution. […] Membrane currents were measured with an EPC 10 patch clamp amplifier (HEKA Elektronik, Lambrecht/Pfalz, Germany) interfaced to a computer running acquisition and analysis software (Pulse, v8.80, HEKA Elektronik, Lambrecht/Pfalz, Germany). […]"}, "CD3^+ T cells [3]": {"test_system": "CD3^+ T cells", "format": "cell-based", "settings": "human CD3^+ T cells, anti-CD3/CD28 beads, 48 h; CellTiter 96 AQueous One Solution, 490 nm", "description": "Peripheral blood (PB) obtained from four healthy volunteers was approved by the Ethics Committee of the College of Life Sciences in Wuhan University (Permit number: ECCLS20120076, approved at 3 May 2012). Ficoll gradients were used to isolate mononuclear cells from PB. The CD3^+ T cells were then purified using EasySep Isolation Kit (StemCell Technologies, Vancouver, BC, Canada), and cultured at density of 5 × 10^5 cells per cm^2 in RPMI-1640 medium supplemented with 2 mM glutamine, and 10% FBS. All the T-cells were cultured at a temperature of 37 °C in a humidified 95% air and 5% CO2 atmosphere. The Jurkat cells were stimulated with 100 ng/ml phorbol ester (PMA) (Sigma-Aldrich, Munich, Germany) and […] Ionmycin (ION) (Sigma-Aldrich, Munich, Germany). The CD3^+ T cells were stimulated with anti-CD3/CD28 antibodies beads (Life Technologies, Waltham, MA, USA). BmKTX-D33H (ranged from 0.1 to 100 nM) was added for 1 h prior to stimulation.\nas §2"}, "Kv1.2": {"test_system": "Kv1.2", "assay": "Whole-cell patch-clamp, Kv1.2 channel currents (transfected HEK293 cells)", "format": "cell-based", "settings": "micromolar concentration (1 μM), pH 7.4", "description": "as §4"}, "Kv1.3 channels": {"test_system": "Kv1.3 channels", "assay": "Whole-cell patch-clamp, Kv1.3 channel currents", "format": "cell-based", "settings": "10 pM, 200 ms depolarizing steps from holding potential −80 mV to +50 mV, pH 7.4, means ± S.E. of at least three experiments", "description": "as §4"}, "Kv1.1": {"test_system": "Kv1.1", "assay": "Whole-cell patch-clamp, Kv1.1 channel currents (transfected HEK293 cells)", "format": "cell-based", "settings": "1 μM, −80 mV to +50 mV, pH 7.4, means ± S.E. of at least three experiments", "description": "as §4"}, "Jurkat cells [4]": {"test_system": "Jurkat cells", "format": "cell-based", "settings": "48 h post-stimulation with 100 ng/mL PMA and 1 mM Ionmycin; CellTiter 96 AQueous One Solution, 490 nm", "excerpt": "(§5) Jurkat E6-1 cells were obtained from the American Tissue Culture Collection (ATCC, Manassas, VA, USA) and cultured in RPMI-1640 supplied with 10% fetal bovine serum (FBS).\nas §1, with “atmosphere. The Jurkat cells were stimulated with 100 ng/ml phorbol ester (PMA) (Sigma-Aldrich, Munich, Germany) and […] Ionmycin (ION) (Sigma-Aldrich, Munich, Germany).” for “atmosphere.”\nas §2"}, "KCa2.2": {"test_system": "KCa2.2", "assay": "Whole-cell patch-clamp, KCa2.2 channel currents (transfected HEK293 cells)", "format": "cell-based", "settings": "micromolar concentration (1 μM), pH 7.4", "description": "as §4"}, "Lewis rats": {"test_system": "Lewis rats", "assay": "Active delayed-type hypersensitivity (DTH), ear swelling", "format": "in vivo", "settings": "female Lewis rats; 100 μg/kg, single subcutaneous injection at ovalbumin challenge; 4, 6, and 24 h after challenge; vs vehicle control", "description": "The animal trial was approved by the Animal Use and Care Committee of the Wuhan University. Female Lewis rats (9–10 weeks of age) were purchased from Charles River Laboratories and housed under pathogen-free conditions. Active DTH was induced as describe previously by immunizing rats against antigen of ovalbumin (Sigma-Aldrich, Munich, Germany) emulsified with complete Freund’s adjuvant (Sigma-Aldrich, Munich, Germany). The emulsion was injected subcutaneously into Lewis rats in order to prime the immune system and develop memory T cells. Seven days later, the rats were challenged again with ovalbumin (20 μg in 20 μL of saline solution) in the pinna of one ear (challenged ear). The other side of ear received saline solution as challenge control. Rats in control group received a single subcutaneous injection of 0.5 mL vehicle (saline solution) in the scruff of the neck, at the time of second-challenge. Whereas, rats in drug-treatment group received 100 μg/kg BmKTX-D33H (in 0.5 mL vehicle) administrated using the same method. The change for thickness of ear (at 4, 6, and 24 h post-challenge) was measured as an indication of the inflammatory reaction and DTH severity."}, "Kv1.3 channel [5]": {"test_system": "Kv1.3 channel", "settings": "ref [29], cited from earlier work", "excerpt": "The venomous scorpions, which have lived on earth for over 400 million years, rely on their venoms for their efficient defense and capture strategy. During their molecular evolution, scorpions produced hundreds of peptide-based toxins in their venoms, typically targeting ion channels with a high degree of molecular diversity. Accordingly, scorpion venoms have been considered as invaluable resources of ion channel inhibitors. […] Because ADWX-1 is a potent blocker of the […] channel (IC50 value of 0.6 nM), we further investigated the pharmacological profile of BmKTX-D33H. || The most remarkable feature of BmKTX-D33H is its sought-after selectivity towards the Kv1.3 channel. Indeed, improving the selectivity of scorpion toxins (especially Kv1.1 versus Kv1.3 channel subtypes) still remains a serious challenge. […] For ADWX-1 ..."}, "[6]": {"test_system": "Kv1.3 channels on the freshly isolated CD3^+ T cells", "assay": "Whole-cell patch-clamp, Kv1.3 currents in freshly isolated human CD3^+ T cells", "format": "cell-based", "settings": "pH 7.4, means ± S.E. of at least three experiments", "description": "as §4"}, "Jurkat cells [7]": {"test_system": "Jurkat cells", "excerpt": "as §5\nas §1, with “FBS.” for “FBS. All the T-cells were cultured at a temperature of 37 °C in a humidified 95% air and 5% CO2 atmosphere.”\nas §2, §3"}, "KCa3.1": {"test_system": "KCa3.1", "assay": "Whole-cell patch-clamp, KCa3.1 channel currents (transfected HEK293 cells)", "format": "cell-based", "settings": "micromolar concentration (1 μM), pH 7.4", "description": "as §4"}, "Kv11.1": {"test_system": "Kv11.1", "format": "cell-based", "settings": "micromolar concentration (1 μM); HEK293 cells, patch-clamp, pH 7.4", "description": "as §4"}, "Kv1.7": {"test_system": "Kv1.7", "assay": "Whole-cell patch-clamp, Kv1.7 (Kv7.1 in legend and methods) channel currents (transfected HEK293 cells)", "format": "cell-based", "settings": "micromolar concentration (1 μM), pH 7.4", "description": "as §4"}, "KCa2.3": {"test_system": "KCa2.3", "assay": "Whole-cell patch-clamp, KCa2.3 channel currents (transfected HEK293 cells)", "format": "cell-based", "settings": "micromolar concentration (1 μM), pH 7.4", "description": "as §4"}},
  "note": "Entries after “also recorded” stand apart in the source; their conditions may differ. Where a SMILES comes first, the peptide text is derived from it. Bridges are numbered along the chain shown (N, C = ends).",
  "data": [
    {"smiles": "CC[C@H](C)[C@H](NC(=O)CNC(=O)[C@@H](N)C(C)C)C(=O)N[C@@H](CC(N)=O)C(=O)N[C@H](C(=O)N[C@@H](CCCCN)C(=O)N[C@H]1CSSC[C@@H]2NC(=O)[C@H](CCCCN)NC(=O)CNC(=O)[C@H](Cc3ccccc3)NC(=O)[C@H](CCCNC(=N)N)NC(=O)[C@H](CCSC)NC(=O)CNC(=O)[C@H](C)NC(=O)[C@H](CC(=O)O)NC(=O)[C@H](CCCCN)NC(=O)[C@@H]3CSSC[C@@H](C(=O)N[C@H](C(=O)N4CCC[C@H]4C(=O)N[C@@H](CCCCN)C(=O)O)[C@@H](C)O)NC(=O)[C@H](Cc4c[nH]cn4)NC(=O)[C@H](CSSC[C@H](NC(=O)[C@H](CCC(N)=O)NC(=O)CNC(=O)[C@H](CO)NC(=O)[C@H](Cc4c[nH]cn4)NC(=O)[C@H](CCCCN)NC1=O)C(=O)N[C@@H](CC(C)C)C(=O)N[C@@H](CCCCN)C(=O)N1CCC[C@H]1C(=O)N3)NC(=O)[C@H](CCCCN)NC(=O)CNC(=O)[C@H](CC(N)=O)NC(=O)[C@H]([C@@H](C)CC)NC2=O)C(C)C", "note": "[BmKTX-D33H] (H-VGINVKCKHSGQCLKPCKDAGMRFGKCINGKCHCTPK-OH; disulfide 7-27, 13-32, 17-34; N-terminus and C-terminus assumed)", "values": [
      {"measurement": "IFN-γ, TNF-α and IL-2 secretion of human T cells", "setting": "CD3^+ T cells [1]", "result": "robust dose-dependent reduction"},
      {"measurement": "selectivity towards the Kv1.3 channel as compared to other K^+ channels", "setting": "Kv1.3 channel [2]", "result": "more than 1000 fold"},
      {"measurement": "proliferation (growth) of CD3^+ cells", "setting": "CD3^+ T cells [3]", "result": "suppressed the growth of CD3^+ cells; also recorded: Suppression of cytokine production and in vitro proliferation"},
      {"measurement": "sensitivity of Kv1.2 channel", "setting": "Kv1.2", "result": "much less sensitive"},
      {"measurement": "inhibition of Kv1.3 channel currents", "setting": "Kv1.3 channels", "result": "56.0% ± 2.0%"},
      {"measurement": "inhibition of Kv1.1 channel currents", "setting": "Kv1.1", "result": "about 46.6% ± 2.0%"},
      {"measurement": "proliferation (growth) of Jurkat cells", "setting": "Jurkat cells [4]", "result": "significantly inhibited; also recorded: Proliferation of activated Jurkat cells was suppressed"},
      {"measurement": "sensitivity of KCa2.2 channel", "setting": "KCa2.2", "result": "much less sensitive"},
      {"measurement": "DTH response, change of ear thickness", "setting": "Lewis rats", "result": "significantly improved the delayed-type hypersensitivity (DTH) responses; also recorded: changes of ear thickness were significantly reduced; also recorded: dramatically reduced the in vivo DTH responses"},
      {"measurement": "potency on the Kv1.3 channel compared with wild-type BmKTX", "setting": "Kv1.3 channel [5]; compared to wild-type BmKTX", "result": "increased potency (as compared to wild-type BmKTX)"},
      {"measurement": "IC50", "setting": "Kv1.3 channel [5]", "result": 0.0154, "unit": "nM"},
      {"measurement": "inhibition of Kv1.3 currents in CD3^+ T cells", "setting": "[6]; 1 nM", "result": "63.3% ± 2.9%"},
      {"measurement": "inhibition of Kv1.3 currents in CD3^+ T cells", "setting": "[6]; 10 nM", "result": "90.7% ± 2.1%"},
      {"measurement": "IC50", "setting": "Jurkat cells [7]; 33 h", "result": "23.9 ± 20.1", "unit": "nM"},
      {"measurement": "IL-2 expression of Jurkat cells", "setting": "Jurkat cells [7]; stimulated by PMA + ION, ELISA", "result": "significantly reduced"},
      {"measurement": "sensitivity of KCa3.1 channel", "setting": "KCa3.1", "result": "much less sensitive"},
      {"measurement": "sensitivity of Kv11.1 channel", "setting": "Kv11.1", "result": "much less sensitive"},
      {"measurement": "sensitivity of Kv1.7 channel", "setting": "Kv1.7", "result": "much less sensitive"},
      {"measurement": "sensitivity of KCa2.3 channel", "setting": "KCa2.3", "result": "much less sensitive"}
    ]}
  ]
}
